Reference: patent publication US20140007502A1, “METHODS AND COMPOSITIONS FOR INCREASED PLANT YIELD” (priority 2011, published 2014)

Assays:
Type in all cases: in vivo
[1] = test system: maize variety DeliTop (NK Seeds); assay: Maize field trial yield, Niedersachsen, Germany (Example 6); conditions: treatment at BBCH 14, 184 days
From the text: (§1) Plots of suitable size in Valais, Switzerland were planted with maize hybrid COOLER™ (NK Seeds) at a conventional amount of seeds per hectare (in this example, 99,000) and at an increased density amount of seeds per hectare (in this example, 125,000).
(§2) Each density area was divided into four separate treatments—an untreated control, treatment with trinexapac ethyl (0.6 l/Ha of MODDUS™ 250EC which has 250 g trinexapac ethyl per liter) at BBCH 14, treatment with azoyxstrobin (1 l/Ha of a formulated product having 141.4 g azoxystrobin per liter in the form of QUILT® (Syngenta Crop Protection AG) which also contains 122.4 g propiconazole per liter) at BBCH 14, and treatment with trinexapac ethyl (0.6 l/Ha of 250 g/l product) and azoxystrobin (1 l/Ha of 141.4 g/l product) at BBCH 14.
(§3) Best practices were used consistently across the test plots with regard to field conditions such as fertilisation and irrigation and all other measures like weed and insect control. There was no fungal disease pressure. After a growing season of 188 days (29 Apr. 2011 to 3 Nov. 2011), each plot was harvested using a standard harvester. After shelling, the kernels were weighed at 14% moisture and the calculations extrapolated to a ton per hectare yield.
Plots were prepared and treated according to the procedure described in Example 2. The differences were that the location was Niedersachsen, Germany and the variety was DeliTop (NK Seeds). The growing season was 184 days (1 May 2011 to 1 Nov. 2011).

[2] = test system: maize hybrid COOLER (NK Seeds); assay: Maize field trial yield, Valais, Switzerland (Example 2); conditions: treatment at BBCH 14, 188 days
From the text: as §1, §2, §3

[3] = test system: maize variety Famoso (NK Seeds); assay: Maize field trial yield, Milano, Italy, 163 days (Example 3); conditions: treatment at BBCH 14
From the text: as §1, §2, §3
Plots were prepared and treated according to the procedure described in Example 2. The differences were that the location was Milano, Italy and the variety was Famoso (NK Seeds). The growing season was 163 days (18 Apr. 2011 to 28 Sep. 2011).

[4] = test system: maize variety Terada (NK Seeds); assay: Maize field trial yield, Oise, France (Example 4); conditions: treatment at BBCH 14, 182 days
From the text: as §1, §2, §3
Plots were prepared and treated according to the procedure described in Example 2. The differences were that the location was Oise, France and the variety was Terada (NK Seeds). The growing season was 182 days (14 Apr. 2011 to 13 Oct. 2011).

[5] = test system: maize variety Famoso (NK Seeds); assay: Maize field trial yield, Milano, Italy, 158 days (Example 5); conditions: treatment at BBCH 14
From the text: as §1, §2, §3
Plots were prepared and treated according to the procedure described in Example 2. The differences were that the location was Milano, Italy and the variety was Famoso (NK Seeds). The growing season was 158 days (15 Apr. 2011 to 20 Sep. 2011).

[6] = test system: maize hybrid (Famoso, NK Seeds); assay: Maize field plots, kernel yield at conventional and increased plant density (Example 1); conditions: kernels at 14% moisture
From the text: Plots measuring 25×40 meters were planted with a common maize hybrid (Famoso, NK Seeds). Eight plots were planted according to density strategies considered optimum prior to the disclosure of the present invention: rows were spaced 75 cm apart, allowing for 16 rows per plot which had 19 cm between plants. Another eight plots were planted with maize at increased density: spacing between rows was 45 cm, giving 24 rows per plot with 22 cm between plants. Thus the density was 7 plants/m^2 for conventional density and 10 plants/m^2 for increased density.
In the 8 plots of conventional density two were untreated controls. Three were treated with a foliar application at stage BBCH 14-15; one with trinexapac ethyl, one with azoxystrobin, and one with a mixture of trinexapac and azoyxstrobin. The remaining three were treated with a foliar application at stage BBCH 31-32; one with trinexapac ethyl, one with azoxystrobin, and one with a mixture of trinexapac and azoyxstrobin. The 8 plots planted at increased density were treated at the same stages and with the same agents as for the conventional density plots. Best practices were used consistently across the test plots with regard to field conditions such as fertilisation and irrigation and all other measures like weed and insect control.
At maturity, each plot was harvested using a standard harvester. After shelling, the kernels were weighed at 14% moisture and the calculations extrapolated to a ton per hectare yield.

[7] = plant density 7 plants/m^2, foliar application at BBCH 14-15
[8] = plant density 7 plants/m^2, foliar application at BBCH 31-32
[9] = plant density 10 plants/m^2, foliar application at BBCH 14-15
[10] = plant density 10 plants/m^2, foliar application at BBCH 31-32

SMILES	Yield ([1]; 72,000 seeds per hectare)	Yield ([1]; 111,000 seeds per hectare)	Yield ([2]; 99,000 seeds per hectare)	Yield ([2]; 125,000 seeds per hectare)	Yield ([3]; 73,000 seeds per hectare)	Yield ([3]; 94,000 seeds per hectare)	Yield ([4]; 70,000 seeds per hectare)	Yield ([4]; 100,000 seeds per hectare)	Yield ([5]; 74,000 seeds per hectare)	Yield ([5]; 94,000 seeds per hectare)	Yield [6, 7]	Yield [6, 8]	Yield [6, 9]	Yield [6, 10]
CO/C=C(/C(=O)OC)c1ccccc1Oc1cc(Oc2ccccc2C#N)ncn1 [Azoxystrobin, azoxystrobin]	11.4 tons/ha	11.1 tons/ha	14.1 tons/ha	17.8 tons/ha	11.6 tons/ha	12.2 tons/ha	11.2 tons/ha	13.6 tons/ha	14.0 tons/ha	15.0 tons/ha	16.67 tons/ha	17.28 tons/ha	20.11 tons/ha	19.58 tons/ha
CCOC(=O)C1CC(=O)C(=C(O)C2CC2)C(=O)C1 (stereo not shown) [Trinexapac Ethyl, trinexapac ethyl]	11.4 tons/ha	11.0 tons/ha	14.0 tons/ha	18.6 tons/ha	11.3 tons/ha	12.1 tons/ha	10.5 tons/ha	14.6 tons/ha	13.7 tons/ha	14.7 tons/ha	16.82 tons/ha	16.70 tons/ha	19.85 tons/ha	19.41 tons/ha
